Source: patent US6004957A, “Sulfonamide inhibitors of aspartyl protease” (Vertex Pharmaceuticals, Incorporated, priority 1998, dated 1999)

The compounds below were run on HIVIIIb in CCRM-CEM cells (assay: Anti-viral potency in CCRM-CEM cells acutely infected with HIVIIIb (method of Meek et al.), extracellular p24 antigen). Settings: HIV replication, Table VIII, read-out: IC90 Range.
Type: cell-based, HIV-1
Source text: As discussed above, the novel compounds of the present invention are excellent ligands for aspartyl proteases, particularly HIV-1 and HIV-2 proteases. Accordingly, these compounds are capable of targeting and inhibiting late stage events in HIV replication, i.e., the processing of the viral polyproteins by HIV encoded proteases. […] Because aspartyl protease is essential for the production of mature virions, inhibition of that processing effectively blocks the spread of virus by inhibiting the production of infectious virions, particularly from chronically infected cells. […] Other anti-viral assays have confirmed the potency of these compounds.
Compounds of formula I were tested for their antiviral potency in several virological assays. In the first assay, the compounds were added as a solution in dimethylsulfoxide (DMSO) to a test cell culture of CCRM-CEM cells, a strain of CD4^+ human T-cell lymphoma cells, previously acutely infected with HIVIIIb using standard protocols (see Meek, T. D. et al., "Inhibition of HIV-1 protease in infected T-lymphocytes by synthetic peptide analogues", Nature, 343, p. 90 (1990). Preferred compounds are those which are able to inhibit 90% of viral infectivity at a concentration of 1 μM or less. More preferred compounds are those which are able to inhibit 90% of viral infectivity at a concentration of 100 nM or less.
The effect of the compounds on inhibiting the replication of the virus was measured by determining the HIV extracellular p24 antigen concentration using a commercial enzyme immunoassay (obtained from Coulter Corporation, Hialeah, Fla.).

Compound | IC90 [nM]
(S)-N-1-(3-((3-Acetylamino-4-fluoro-benzenesulfonyl)-benzyl-amino)-(1S,2 syn)-1-benzyl-2-hydroxy-propyl)-2-((quinoline-2-carbonyl)-amino)-succinamide and (S)-N-1-(3-((4-Acetylamino-3-fluoro-benzenesulfonyl)-benzyl-amino)-(1S,2 syn)-1-benzyl-2-hydroxy-propyl)-2-((quinoline-2-carbonyl)-amino)-succinamide [Compound 2] | 101 to 1000

Same assay, conditions: Human immunodeficiency virus 1, HIV replication, Table VIII, read-out: IC90 Range

Compound | IC90 [nM]
NC(=O)C[C@H](NC(=O)c1ccc2ccccc2n1)C(=O)N[C@@H](Cc1ccccc1)[C@H](O)CN(Cc1ccccc1)S(=O)(=O)c1cccc(C(=O)O)c1 [Compound 7] | 10000 to 40000
Nc1ccc(S(=O)(=O)N(CC2CCCC2)C[C@@H](O)[C@H](Cc2ccccc2)NC(=O)O[C@H]2CCOC2)c(N)c1 [Compound 173, 2,4-Diamino-N-cyclopentylmethyl-N-((2 syn,3S)-2-hydroxy-4-phenyl-3-((S)-tetrahydrofuran-3-yloxycarbonylamino)-butyl)-benzenesulfonamide] | < 100
CC(C)CN(C[C@@H](O)[C@H](Cc1ccccc1)NC(=O)O[C@H]1CCOC1)S(=O)(=O)c1ccc(-c2ccccn2)s1 [Compound 51] | 1000 to 10000
CC(=O)Nc1cc(S(=O)(=O)N(CC(C)C)C[C@@H](O)[C@H](Cc2ccccc2)NC(=O)OC(C)(C)C)ccc1F [Compound 54] | 1000 to 10000
CC(=O)Nc1ccc(S(=O)(=O)N(CC(C)C)C[C@@H](O)[C@H](Cc2ccccc2)NC(=O)O[C@H]2CCOC2)cc1 [Compound 48, N-(4-(((2 syn,3S)-2-Hydroxy-4-phenyl-3-((S)-tetrahydrofuran-3-yloxycarbonylamino)-butyl)-isobutyl-sulfamoyl)-phenyl)-acetamide] | 101 to 1000
CC(C)CN(C[C@@H](O)[C@H](Cc1ccccc1)NC(=O)OCc1ccccc1)S(=O)(=O)c1ccc(N)c([N+](=O)[O-])c1 [Compound 63] | 1000 to 10000
CC(C)CN(C[C@@H](O)[C@H](Cc1ccccc1)NC(=O)OCC1CCOC1)S(=O)(=O)c1ccc(Cl)c(Cl)c1 (some centres unmarked) [Compound 85] | 1000 to 10000
CC(C)CN(C[C@@H](O)[C@H](Cc1ccccc1)NC(=O)OC(C)(C)C)S(=O)(=O)c1ccccc1 [Compound 45] | 1000 to 10000
C=CCOC(=O)N[C@@H](Cc1ccccc1)[C@H](O)CN(CC(C)C)S(=O)(=O)c1ccc(F)cc1 [Compound 122] | 1000 to 10000
CCOC(=O)N[C@@H](Cc1ccccc1)[C@H](O)CN(CC(C)C)S(=O)(=O)c1ccc(F)cc1 [Compound 121] | 1000 to 10000
C=C(C)COC(=O)N[C@@H](Cc1ccccc1)[C@H](O)CN(CC(C)C)S(=O)(=O)c1ccc(F)cc1 [Compound 107] | 1000 to 10000
O=C(N[C@@H](Cc1ccccc1)[C@H](O)CN(CC1CCCC1)S(=O)(=O)c1ccc(OC(F)(F)F)cc1)O[C@H]1CCOC1 [Compound 151] | 1000 to 10000
C=CCOC(=O)N[C@@H](Cc1ccccc1)[C@H](O)CN(CC1CCCC1)S(=O)(=O)c1ccc(OC)cc1 [Compound 141, N-((3-allyloxycarbonylamino)-(2 syn,3S)-2-hydroxy-4-phenyl-butyl)-N-cyclopentylmethyl-4-methoxy-benzenesulfonamide] | 101 to 1000
CC(=O)Nc1ccc(S(=O)(=O)N(CC(C)C)C[C@@H](O)[C@H](Cc2ccccc2)NC(=O)[C@@H](NC(=O)OCc2ccccn2)C(C)C)cc1 [Compound 22] | 101 to 1000
CC(C)CN(C[C@@H](O)[C@H](Cc1ccccc1)NC(=O)O[C@H]1CCOC1)S(=O)(=O)c1ccc(Cl)cc1 [Compound 99, 4-Chloro-N-((2 syn,3S)-2-hydroxy-4-phenyl-3-((S)-tetrahydrofuran-3-yloxycarbonylamino)-butyl)-isobutyl-benzenesulfonamide] | 101 to 1000
CCCOC(=O)N[C@@H](Cc1ccccc1)[C@H](O)CN(CC(C)C)S(=O)(=O)c1ccc(Cl)c(Cl)c1 [Compound 89] | 1000 to 10000
C=CCOC(=O)N[C@@H](Cc1ccccc1)[C@H](O)CN(CC(C)C)S(=O)(=O)c1ccc(Cl)c(Cl)c1 [Compound 81] | 1000 to 10000
C=C(C)COC(=O)N[C@@H](Cc1ccccc1)[C@H](O)CN(CC(C)C)S(=O)(=O)c1ccc(Cl)c(Cl)c1 [Compound 106] | 1000 to 10000
CC(C)CN(C[C@@H](O)[C@H](Cc1ccccc1)NC(=O)O[C@@H]1CCOC1)S(=O)(=O)c1ccc(F)cc1 [Compound 93, 4-Fluoro-N-((2 syn,3S)-2-hydroxy-4-phenyl-3-((R)-tetrahydrofuran-3-yloxycarbonylamino)-butyl)-N-isobutyl-benzenesulfonamide] | 101 to 1000
CC(C)CN(C[C@@H](O)[C@H](Cc1ccccc1)NC(=O)OCc1cccnc1)S(=O)(=O)c1ccc(F)cc1 [Compound 98, 4-Fluoro-N-((2 syn,3S)-2-hydroxy-4-phenyl-3-(pyridin-3-yl-methoxycarbonylamino)-butyl)-N-isobutyl-benzenesulfonamide] | 101 to 1000
CC(C)CN(C[C@@H](O)[C@H](Cc1ccccc1)NC(=O)O[C@H]1CCOC1)S(=O)(=O)c1ccc(F)c(F)c1 [Compound 124] | 10000 to 40000
CC(C)CN(C[C@@H](O)[C@H](Cc1ccccc1)NC(=O)[C@H](CC(N)=O)NC(=O)c1ccc2ccccc2n1)S(=O)(=O)c1cc(S(=O)(=O)c2ccccc2)cs1 [Compound 13, (S)-N-1-(3-((4-Benzenesulfonyl-thiophene-2-sulfonyl)-isobutyl-amino)-(1S,2 syn)-1-benzyl-2-hydroxy-propyl)-2-((quinoline-2-carbonyl)-amino)-succinamide] | < 100
CC(=O)Nc1ccc(S(=O)(=O)N(CC2CCCC2)C[C@@H](O)[C@H](Cc2ccccc2)NC(=O)OCc2cccnc2)cc1 [Compound 147, N-(4-(Cyclopentylmethyl-((2 syn,3S)-2-hydroxy-4-phenyl-3-(pyridin-3-yl-methoxycarbonylamino)-butyl)-sulfamoyl)-phenyl)-acetamide] | 101 to 1000
CC(=O)Nc1ccc(S(=O)(=O)N(CC(C)C)C[C@@H](O)[C@H](Cc2ccccc2)NC(=O)OC(C)C)cc1 [Compound 29] | 1000 to 10000
CC[C@H](C)[C@H](NC(=O)c1cnc2ccccc2n1)C(=O)N[C@@H](Cc1ccccc1)[C@H](O)CN(CC(C)C)S(=O)(=O)c1ccc(F)c(NC(C)=O)c1 [Compound 188] | 1000 to 10000
CC(C)CN(C[C@@H](O)[C@H](Cc1ccccc1)NC(=O)O[C@H]1CCOC1)S(=O)(=O)c1cccc2nonc12 [Compound 60] | 1000 to 10000
CC(C)CN(C[C@@H](O)[C@H](Cc1ccccc1)NC(=O)O[C@H]1CCOC1)S(=O)(=O)c1ccc(F)cc1 [Compound 35, 4-Fluoro-N-((2 syn,3S)-2-hydroxy-4-phenyl-3-((S)-tetrahydrofuran-3-yloxycarbonylamino)-butyl)-N-isobutyl-benzenesulfonamide] | 101 to 1000
CC(=O)Nc1ccc(S(=O)(=O)N(CC(C)C)C[C@@H](O)[C@H](Cc2ccccc2)NC(=O)OC2CCOC2)cc1 (stereo partly drawn) [Compound 86, N-(4-(((2 syn,3S)-2-Hydroxy-4-phenyl-3-((R)-tetrahydrofuran-3-yloxycarbonylamino)-butyl)-isobutyl-sulfamoyl-phenyl)-acetamide and N-(4-(((2 syn,3S)-2-Hydroxy-4-phenyl-3-((S)-tetrahydrofuran-3-yloxycarbonylamino)-butyl)-isobutyl-sulfamoyl)-phenyl)-acetamide] | 101 to 1000
